Source: US20240173317A1, “METHODS FOR TREATING PROGRESSIVE FAMILIAL INTRAHEPATIC CHOLESTASIS” (MIRUM PHARMACEUTICALS, INC., priority 2022, published 2024)

Key:
Format in all cases: in vivo, human
subjects with PFIC = experiment: EDQ(Obs) sleep disturbance score, MARCH-PFIC Phase 3 study; settings: All-PFIC; FIG. 27D
Description: The terms “EDQ(Obs)”, “EDQ(Pt)”, and “EDQ” as used herein, refer to Exploratory Diary Questionnaire that are used to assess pruritus in children under the age of 18 or adults of at least 18 years of age. EDQ is a caregiver/patient reported outcome measure administered as a twice daily electronic diary. EDQ contained a question about sleep related to pruritus: “because of itch, my child had trouble staying asleep. 1—Never, 2—Rarely, 3—ometimes, 4—Often, or 5—Almost Always.” Caregivers for all subjects aged <9 years completed the Observer instrument: EDQ(Obs). Subjects ≥9 years of age completed the patient instrument: EDQ(Pt). EDQ includes questions on sleep disturbances related to pruritus.
Exploratory Diary Questionnaire. Pruritus was assessed using the EDQ caregiver/patient reported outcome measure administered as a twice daily electronic diary. […] Pruritus was assessed and recorded twice daily by subjects or caregivers, via EDQ, beginning with the day after the screening visit and every day throughout the duration of the study, as described in Table 2.
Methods: Participants were randomized to receive MRX 570 μg/kg BID or placebo (PBO) (FIG. 27A). The primary analysis evaluated pruritus as assessed by the caregiver using ItchRO(Obs) 0-4 scale; as well as by physician using the Clinician Scratch Scale (CSS). Sleep was assessed using the Exploratory Diary Questionnaire (Observer) (EDQ[Obs]). […]

[1] = Growth z-scores (height, weight), MARCH-ON long-term extension
Description: (§1) Eighty-five patients from MARCH trial enrolled in MARCH-ON (Table 10, FIG. 29A). Forty-seven patients had received Maralixibat (MRX-MRX) and 38 had received placebo (PBO-MRX) during MARCH trial.
PFIC subtypes of patients included in the study were: non-truncated bile salt export pump (nt-B SEP, n=27), familial intrahepatic cholestasis-associated protein type 1 (F1C1, n=13); multidrug-resistance 3 protein (MDR3, n=9); tight junction protein 2 (TJP2, n=6); myosin VB (MYO5B, n=2); heterozygosis (n=2); truncated B SEP (t-B SEP, n=9); variant not found (n=8), fluctuating sBA (n=2); and surgery (n=7). Efficacy analyses included n=33 in the MRX-MRX group and n=24 in the PRO-MRX group. Subtypes nt-BSEP, F1C1, MDR3, TJP2, and MYO5B were included in the efficacy analyses. Baseline was defined as the start of maralixibat (MRX) treatment for each group.
(§2) Methods: Long-term maintenance of response was assessed for patients who were originally randomized to receive MRX in MARCH and continued with treatment in MARCH-ON (MRX-MRX group; n=33). MRX response was assessed for patients who received PBO in the MARCH study and switched to open-label MRX in MARCH-ON (PBO-MRX group; n=24). Assessments included: pruritus measured by 0-4 scale of ItchRO[Obs], sBA, bilirubin, and growth z-scores, as well as incidence of treatment-emergent adverse events(TEAEs). Baseline (BL) was defined as the start of MRX for each group.

patients with PFIC = experiment: TEAEs, MARCH-ON long-term extension
Procedure: as §1, §2

[2] = MRX-MRX group (n = 20), Baseline to Week 52
[3] = PBO-MRX group (n = 15), Baseline to Week 26

In the case of `CCCCC1(CCCC)CS(=O)(=O)c2ccc(N(C)C)cc2[C@@H](c2ccc(OCc3ccc(C[N+]45CCN(CC4)CC5)cc3)cc2)[C@H]1O` [maralixibat, 1-(4-((4-((4R,5R)-3,3-dibutyl-7-(dimethylamino)-4-hydroxy-1,1-dioxido-2,3,4,5-tetrahydrobenzo[b]thiepin-5-yl)phenoxy)methyl)benzyl)-1,4-diazabicyclo[2.2.2]octan-1-ium], the “CFB in sleep (EDQ(Obs)), difference MRX vs PBO, delta [95% CI]” value (subjects with PFIC) is reported as “significant improvements”, the “Height Z-score, mean change from Baseline” value [1, 2] is reported as “+0.54” and the “Weight Z-score, mean change from Baseline” value [1, 2] is reported as “+0.44”. The “Height Z-score, mean change from Baseline” value [1, 3] was “+0.46”, the “Weight Z-score, mean change from Baseline” value [1, 3] was “+0.09” and the “Any TEAE, %” value (patients with PFIC; MRX-MRX (n = 47)) was “(1M)”. The “Most common TEAE: diarrhoea, %” value (patients with PFIC; MRX-MRX (n = 47)) was “(63.8) %”, the “Serious TEAE, %” value (patients with PFIC; MRX-MRX (n = 47)) was “(17.0) %” and the “Severe TEAE, %” value (patients with PFIC; MRX-MRX (n = 47)) was “(10.6) %”. For the same compound, the “TEAE leading to death, %” value (patients with PFIC; MRX-MRX (n = 47)) was “(2.1) %”, the “TEAE leading to discontinuation, %” value (patients with PFIC; MRX-MRX (n = 47)) was “(6.4) %” and the “Any TEAE, %” value (patients with PFIC; PBO-MRX (n = 38)) was “(92.1) %”. The “Most common TEAE: diarrhoea, %” value (patients with PFIC; PBO-MRX (n = 38)) was “(34.2) %”, the “Serious TEAE, %” value (patients with PFIC; PBO-MRX (n = 38)) was “(15.0) %” and the “Severe TEAE, %” value (patients with PFIC; PBO-MRX (n = 38)) was “(5.3) %”. The “early onset of diarrhea (most frequent TEAE)” value (patients with PFIC; overall) was 51% and the new safety signals (patients with PFIC; overall) was “no new safety signals”.
